Source: patent publication US10189839B2, “Tricyclic imidazole compounds as inhibitors of tryptophan hydroxylase” (ACTELION PHARMACEUTICALS LTD, priority 2013, dated 2019)

target: T1, full length human TPH1 (Homo sapiens, UniProt P17752); test: Biochemical in vitro assay using fluorescence readout (TPH1 enzyme activity); settings: Table 1, mean where determined several times
T1 construct: To generate the enzyme, full length human TPH1 is cloned into the plasmid pET20b(+); made in house; host or cells: E. coli
T1 sequence (P17752 1-444): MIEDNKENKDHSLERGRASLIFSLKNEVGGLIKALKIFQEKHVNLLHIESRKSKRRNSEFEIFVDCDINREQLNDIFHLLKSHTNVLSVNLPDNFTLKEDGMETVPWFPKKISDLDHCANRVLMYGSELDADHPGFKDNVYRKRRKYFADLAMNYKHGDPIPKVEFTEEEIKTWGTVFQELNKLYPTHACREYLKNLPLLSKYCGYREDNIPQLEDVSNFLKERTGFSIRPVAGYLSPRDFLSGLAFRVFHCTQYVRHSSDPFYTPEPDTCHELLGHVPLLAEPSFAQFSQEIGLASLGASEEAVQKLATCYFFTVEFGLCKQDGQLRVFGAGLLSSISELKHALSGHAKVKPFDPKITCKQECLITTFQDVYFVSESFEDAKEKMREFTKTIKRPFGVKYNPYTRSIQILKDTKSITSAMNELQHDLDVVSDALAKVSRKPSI
Procedure, shortened: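 IC50 (mean of repeats) derived from 5-hydroxy-L-tryptophan fluorescence at 540 nm (300 nm excitation) relative to vehicle, after perchloric acid stop. Reaction: 60 min, 15° C., pH 7.6 Tris-HCl, 40 μM L-tryptophan, 100 μM 6-methyltetrahydropterine, DTT, catalase, with 40-80 nM purified full-length human TPH1 from E. coli.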

| IC50 | SMILES |
| --- | --- |
| 16 nM | CCc1nc(C(=O)NC2CC2)ccc1OCC(=O)N1CCc2nc3n(c2[C@@H]1c1ncc(C2CC2)cc1F)CCS3 [Example 4.2.3, (R)-N-cyclopropyl-5-(2-(5-(5-cyclopropyl-3-fluoropyridin-2-yl)-2,3,7,8-tetrahydrothiazolo[2′,3′:2,3]imidazo[4,5-c]pyridin-6(5H)-yl)-2-oxoethoxy)-6-ethylpicolinamide] |
| 9 nM | O=C(NC1CC1)c1ccc(OCC(=O)N2CCc3nc4n(c3[C@@H]2c2ccc(C3CC3)cc2F)CCCC4)c(Cl)n1 [Example 1.8.6, (S)-6-chloro-N-cyclopropyl-5-(2-(1-(4-cyclopropyl-2-fluorophenyl)-3,4,6,7,8,9-hexahydroimidazo[1,2-a:5,4-c′]dipyridin-2(1H)-yl)-2-oxoethoxy)picolinamide] |
| 62 nM | COCCN(C)c1ccc(OCC(=O)N2CCc3nc4n(c3C2c2ccc(Cl)cc2F)CCCC4)c(Cl)n1 (centres unmarked) [Example 1.1.24, 1-(1-(4-chloro-2-fluorophenyl)-3,4,6,7,8,9-hexahydroimidazo[1,2-a:5,4-c′]dipyridin-2(1H)-yl)-2-((2-chloro-6-((2-methoxyethyl)(methyl)amino)pyridin-3-yl)oxy)ethan-1-one] |
| 303 nM | COC(C)(C)c1ccc(C2c3c(nc4n3CCCC4)CCN2C(=O)COc2ccc(NS(C)(=O)=O)nc2Cl)c(F)c1 (centres unmarked) [Example 1.25.2, N-(6-chloro-5-(2-(1-(2-fluoro-4-(2-methoxypropan-2-yl)phenyl)-3,4,6,7,8,9-hexahydroimidazo[1,2-a:5,4-c′]dipyridin-2(1H)-yl)-2-oxoethoxy)pyridin-2-yl)methanesulfonamide] |
| 11 nM | CC(=O)N1CCn2c(nc3c2C(c2ncc(C)cc2F)N(C(=O)COc2ccc(N4CCOCC4)nc2Cl)CC3)C1 (centres unmarked) [Example 5.8.1, 1-(7-acetyl-1-(3-fluoro-5-methylpyridin-2-yl)-3,4,6,7,8,9-hexahydropyrido[4′,3′:4,5]imidazo[1,2-a]pyrazin-2(1H)-yl)-2-((2-chloro-6-morpholinopyridin-3-yl)oxy)ethanone] |
| 41 nM | CN(C)C(=O)c1ccc(OCC(=O)N2CCc3nc4n(c3C2c2ccc(Cl)cc2F)CCN(C2CC2)C4)c(Cl)n1 (centres unmarked) [Example 5.1.4, 6-chloro-5-(2-(1-(4-chloro-2-fluorophenyl)-7-cyclopropyl-3,4,6,7,8,9-hexahydropyrido[4′,3′:4,5]imidazo[1,2-a]pyrazin-2(1H)-yl)-2-oxoethoxy)-N,N-dimethylpicolinamide] |
| 11 nM | CCc1nc(C)ccc1OCC(=O)N1CCc2nc3n(c2C1c1ccc(C2CC2)cc1F)CCN(C(C)=O)C3 (centres unmarked) [Example 5.2.17, 1-(7-acetyl-1-(4-cyclopropyl-2-fluorophenyl)-3,4,6,7,8,9-hexahydropyrido[4′,3′:4,5]imidazo[1,2-a]pyrazin-2(1H)-yl)-2-((2-ethyl-6-methylpyridin-3-yl)oxy)ethanone] |
| 15 nM | CC(=O)N1CCn2c(nc3c2C(c2ccc(C)cc2F)N(C(=O)COc2ccc(CN4CCOCC4)cc2Cl)CC3)C1 (centres unmarked) [Example 5.12.3, 1-(7-acetyl-1-(2-fluoro-4-methylphenyl)-3,4,6,7,8,9-hexahydropyrido[4′,3′:4,5]imidazo[1,2-a]pyrazin-2(1H)-yl)-2-(2-chloro-4-(morpholinomethyl)phenoxy)ethanone] |
| 68 nM | COC(C)(C)c1ccc(C2c3c(nc4n3CCCC4)CCN2C(=O)COc2ccc(C(=O)NC3CC3)nc2Cl)c(F)c1 (centres unmarked) [Example 1.25.1, 6-chloro-N-cyclopropyl-5-(2-(1-(2-fluoro-4-(2-methoxypropan-2-yl)phenyl)-3,4,6,7,8,9-hexahydroimidazo[1,2-a:5,4-c′]dipyridin-2(1H)-yl)-2-oxoethoxy)picolinamide] |
| 78 nM | COc1ccc(C2c3c(nc4n3CCCC4)CCN2C(=O)COc2ccc(NS(C)(=O)=O)nc2Cl)c(F)c1 (centres unmarked) [Example 1.21.2, N-(6-chloro-5-(2-(1-(2-fluoro-4-methoxyphenyl)-3,4,6,7,8,9-hexahydroimidazo[1,2-a:5,4-c′]dipyridin-2(1H)-yl)-2-oxoethoxy)pyridin-2-yl)methanesulfonamide] |
| 6 nM | CC(=O)N1CCn2c(nc3c2C(c2sccc2F)N(C(=O)COc2ccc(N4CCOCC4)nc2Cl)CC3)C1 (centres unmarked) [Example 5.13.1, 1-(7-acetyl-1-(3-fluorothiophen-2-yl)-3,4,6,7,8,9-hexahydropyrido[4′,3′:4,5]imidazo[1,2-a]pyrazin-2(1H)-yl)-2-((2-chloro-6-morpholinopyridin-3-yl)oxy)ethanone] |
| 10 nM | O=C(NC1CC1)c1ccc(OCC(=O)N2CCc3nc4n(c3C2c2ccc(Cl)cc2F)CCCC4)c(C2CC2)n1 (centres unmarked) [Example 1.1.22, 5-(2-(1-(4-chloro-2-fluorophenyl)-3,4,6,7,8,9-hexahydroimidazo[1,2-a:5,4-c′]dipyridin-2(1H)-yl)-2-oxoethoxy)-N,6-dicyclopropylpicolinamide] |
| 15 nM | Cc1ccc(C2c3c(nc4n3CCC4)CCN2C(=O)COc2ccc(NS(C)(=O)=O)nc2Cl)c(F)c1 (centres unmarked) [Example 2.2.1, N-(6-chloro-5-(2-(1-(2-fluoro-4-methylphenyl)-3,4,7,8-tetrahydro-1H-pyrrolo[2′,1′:2,3]imidazo[4,5-c]pyridin-2(6H)-yl)-2-oxoethoxy)pyridin-2-yl)methanesulfonamide] |
| 76 nM | CCc1nc(NS(=O)(=O)N(C)C)ccc1OCC(=O)N1CCc2nc3n(c2C1c1ccc(Cl)cc1F)CCS3 (centres unmarked) [Example 4.1.7, N-(5-(2-(5-(4-chloro-2-fluorophenyl)-2,3,7,8-tetrahydrothiazolo[2′,3′:2,3]imidazo[4,5-c]pyridin-6(5H)-yl)-2-oxoethoxy)-6-ethylpyridin-2-yl)-N′,N′-dimethyl-sulfamide] |
| 21 nM | COC(=O)c1ccc(C2c3c(nc4n3CCCC4)CCN2C(=O)COc2ccc(NS(C)(=O)=O)nc2Cl)c(F)c1 (centres unmarked) [Example 1.23.1, methyl-4-(2-(2-((2-chloro-6-(methylsulfonamido)pyridin-3-yl)oxy)acetyl)-1,2,3,4,6,7,8,9-octahydroimidazo[1,2-a:5,4-c′]dipyridin-1-yl)-3-fluorobenzoate] |
| 16 nM | CN(c1ccc(OCC(=O)N2CCc3nc4n(c3C2c2ccc(Cl)cc2F)CCS4)c(Cl)n1)S(C)(=O)=O (centres unmarked) [Example 4.1.4, N-(6-chloro-5-(2-(5-(4-chloro-2-fluorophenyl)-2,3,7,8-tetrahydrothiazolo[2′,3′:2,3]imidazo[4,5-c]pyridin-6(5H)-yl)-2-oxoethoxy)pyridin-2-yl)-N-methylmethanesulfonamide] |
| 7 nM | CCc1nc(C(=O)NC2CC2)ccc1OCC(=O)N1CCc2nc3n(c2[C@@H]1c1ncc(C2CC2)cc1F)CCCC3 [Example 1.3.3, (R)-N-cyclopropyl-5-(2-(1-(5-cyclopropyl-3-fluoropyridin-2-yl)-3,4,6,7,8,9-hexahydroimidazo[1,2-a:5,4-c′]dipyridin-2(1H)-yl)-2-oxoethoxy)-6-ethylpicolinamide] |
| 8 nM | CCc1nc(C(=O)NC2CC2)ccc1OCC(=O)N1CCc2nc3n(c2C1c1ncc(C2CC2)cc1F)CCS3 (centres unmarked) [Example 4.2.1, N-cyclopropyl-5-(2-(5-(5-cyclopropyl-3-fluoropyridin-2-yl)-2,3,7,8-tetrahydrothiazolo[2′,3′:2,3]imidazo[4,5-c]pyridin-6(5H)-yl)-2-oxoethoxy)-6-ethylpicolinamide] |
| 100 nM | CCNC(=O)Nc1nc(C2c3c(nc4n3CCN(C(C)=O)C4)CCN2C(=O)COc2ccc(N3CCOCC3)nc2Cl)cs1 (centres unmarked) [Example 5.11.1, 1-(4-(7-acetyl-2-(2-((2-chloro-6-morpholinopyridin-3-yl)oxy)acetyl)-1,2,3,4,6,7,8,9-octahydropyrido[4′,3′:4,5]imidazo[1,2-a]pyrazin-1-yl)thiazol-2-yl)-3-ethylurea] |
| 16 nM | Cc1cnc(C2c3c(nc4n3CCCC4)CCN2C(=O)COc2ccc(N3CCCS3(=O)=O)nc2Cl)c(F)c1 (centres unmarked) [Example 1.6.5, 2-((2-chloro-6-(1,1-dioxidoisothiazolidin-2-yl)pyridin-3-yl)oxy)-1-(1-(3-fluoro-5-methylpyridin-2-yl)-3,4,6,7,8,9-hexahydroimidazo[1,2-a:5,4-c′]dipyridin-2(1H)-yl)ethanone] |
| 5 nM | CCc1nc(C(=O)NC2CC2)ccc1OCC(=O)N1CCc2nc3n(c2[C@@H]1c1sc(C)nc1C)CCCC3 [Example 1.10.17, (R)-N-cyclopropyl-5-(2-(1-(2,4-dimethylthiazol-5-yl)-3,4,6,7,8,9-hexahydroimidazo[1,2-a:5,4-c′]dipyridin-2(1H)-yl)-2-oxoethoxy)-6-ethylpicolinamide] |
| 76 nM | CN(C)C(=O)c1ccc(OCC(=O)N2CCc3nc4n(c3C2c2ncc(Cl)cc2F)CCOC4)c(Cl)n1 (centres unmarked) [Example 6.4.2, 6-chloro-5-(2-(6-(5-chloro-3-fluoropyridin-2-yl)-3,4,8,9-tetrahydro-1H-pyrido[4′,3′:4,5]imidazo[2,1-c][1,4]oxazin-7(6H)-yl)-2-oxoethoxy)-N,N-dimethylpicolinamide] |
| 16 nM | CCc1nc(NS(C)(=O)=O)ccc1OCC(=O)N1CCc2nc3n(c2C1c1ccc(Cl)cc1F)CCS3 (centres unmarked) [Example 4.1.3, N-(5-(2-(5-(4-chloro-2-fluorophenyl)-2,3,7,8-tetrahydrothiazolo[2′,3′:2,3]imidazo[4,5-c]pyridin-6(5H)-yl)-2-oxoethoxy)-6-ethylpyridin-2-yl)methanesulfonamide] |
